The record followed here is patent publication US20260365671A1, “HETEROCYCLIC COMPOUND” (Takeda Pharmaceutical Company Limited, priority 2022, published 2026).

The IC50 is the concentration that inhibits the measured activity by half. The low end stands for greater potency, the high end for weaker potency.

One test concerns NF-κB pathway. Briefly: TNF-α assay (THP-1 cells differentiated to macrophages with IFN-γ, NF-κB pathway activated with LPS; ELISA). The format is cell-based, Human. Conditions: compound 30 min, 50 ng/mL LPS 3 hours. Here is the method:
(§1) The biological activity of Compound (I) with respect to NLRP3 was determined using the following in vitro methods.
TNF-α Assay (Reported as IC50)
Monocytic THP-1 cells (ATCC: TIB-202) were maintained in accordance with the provider's instructions in RPMI media (Life Technologies, Cat #A10491-01); RPMI was supplemented with 10% heat inactivated fetal bovine serum (Hyclone Cat #SH30396.03). The cells were differentiated into macrophages by the addition of 25 ng/mL IFN-γ for 24 hours at 37 °C/5% CO2. Media was exchanged with fresh media with no FBS. The cells were plated at 40,000 cells per well in 384-well flat-bottom cell culture plates (Costar 3764) containing compounds (added in 1:1000) in a 1:3.16 serial dilution series in DMSO and were incubated for 30 minutes at 37 °C/5% CO2. The NF-κB pathway was activated with the addition of 50 ng/mL LPS and the cells were incubated for 3 hours at 37 °C/5% CO2. At the end of the incubation period, supernatant ([…]) was removed, and […] were monitored using an ELISA (Human TNF-α ELISA, R&D systems, Cat #DY210) according to the manufacturer's instructions.
(§2) The IC50 values were calculated from a plot of percentage of inhibition versus the inhibitor concentration by a logistics curve fit according to: Y=[Bottom+(Top−Bottom)]/(1+10^[(Log IC50−X)·Hill Slope], where Y is the % inhibition at the inhibitor concentration, X, “Bottom” is the lowest inhibition value, i.e., 0%, “Top” is the maximum inhibition value, i.e., 100%, and the “Hill Slope” describes the slope of the sigmoidal curve between the “Bottom” and “Top” values. The curve fitting was conducted with XLfit (ver. 5.5.0.5, ID Business Solutions Limited) or internally developed software.
(§3) Table 2 lists in vitro biological assay data (IL-1β and TNF-α) for the compounds shown in the examples. These assays are described in the section entitled Biological Activity, above.

The target of another test is T1, NLRP3 inflammasome (Homo sapiens, UniProt Q96P20).
T1 construct: IL-1beta HTRF
T1 sequence (Q96P20 whole entry): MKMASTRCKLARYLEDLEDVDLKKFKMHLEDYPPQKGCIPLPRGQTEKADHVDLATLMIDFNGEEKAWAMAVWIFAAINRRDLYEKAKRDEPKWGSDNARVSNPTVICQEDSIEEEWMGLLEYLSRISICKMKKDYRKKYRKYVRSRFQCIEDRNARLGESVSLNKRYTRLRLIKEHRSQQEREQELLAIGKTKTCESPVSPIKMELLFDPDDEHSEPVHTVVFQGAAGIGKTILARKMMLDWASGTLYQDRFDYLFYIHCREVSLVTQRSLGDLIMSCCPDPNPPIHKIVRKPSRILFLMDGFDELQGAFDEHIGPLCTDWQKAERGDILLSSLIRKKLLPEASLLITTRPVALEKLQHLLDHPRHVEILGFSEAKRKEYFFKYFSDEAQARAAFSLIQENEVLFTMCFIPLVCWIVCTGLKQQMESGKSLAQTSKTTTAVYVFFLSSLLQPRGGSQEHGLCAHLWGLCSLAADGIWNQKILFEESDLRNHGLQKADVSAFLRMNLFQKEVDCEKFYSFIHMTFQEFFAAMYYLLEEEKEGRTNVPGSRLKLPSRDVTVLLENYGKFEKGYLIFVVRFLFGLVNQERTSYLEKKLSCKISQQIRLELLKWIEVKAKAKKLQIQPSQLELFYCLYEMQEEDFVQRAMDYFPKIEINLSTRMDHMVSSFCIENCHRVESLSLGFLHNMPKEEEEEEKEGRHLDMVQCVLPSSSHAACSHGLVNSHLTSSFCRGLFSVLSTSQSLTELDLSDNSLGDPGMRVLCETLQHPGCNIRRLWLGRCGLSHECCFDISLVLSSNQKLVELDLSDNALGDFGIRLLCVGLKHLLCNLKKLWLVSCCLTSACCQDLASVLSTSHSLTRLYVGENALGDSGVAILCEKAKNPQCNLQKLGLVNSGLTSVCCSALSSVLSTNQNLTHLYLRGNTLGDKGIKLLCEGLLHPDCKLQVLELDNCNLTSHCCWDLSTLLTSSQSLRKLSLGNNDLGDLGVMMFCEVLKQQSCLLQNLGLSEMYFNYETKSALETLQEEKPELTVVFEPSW
Briefly: IL-1β TR-FRET assay (THP-1 cells differentiated to macrophages with IFN-γ, LPS primed, ATP activated; HTRF). Conditions: THP-1 macrophages, 50 ng/mL LPS priming, compound 30 min, 20 mM ATP 2 hours. Type of test: cell-based. The protocol: as §1
IL-1β TR-FRET Assay (Reported as IC50)
Monocytic THP-1 cells (ATCC: TIB-202) were maintained in accordance with the provider's instructions in RPMI media (Life Technologies, Cat #A10491-01); RPMI was supplemented with 10% heat inactivated fetal bovine serum (Corning, Cat #35-010-CV). The cells were differentiated into macrophages by the addition of 25 ng/mL IFN-γ (PeproTech, Cat #AF300-02-100UG) for 24 hours at 37 °C/5% CO2. Media was exchanged with fresh media with no FBS, and the cells were treated with 50 ng/mL LPS (priming step) (LPS-EK: Invivogen, Cat #tlrl-peklps). The cells were plated at 240,000 cells per well in 384-well flat-bottom cell culture plates (FALCON, Cat #353962) and were incubated for 24 hours at 37 °C/5% CO2. Compounds were serially diluted (half log dilutions) with DMSO and were finally diluted with Media with no FBS. The compounds were added to the cells in 384-well plates (added in 1:3) and then the plates were incubated for 30 minutes at 37 °C/5% CO2. The NLRP3 inflammasome was activated with the addition of 20 mM ATP (Sigma Cat #A3377-25G) and the cells were incubated for 2 hours at 37 °C/5% CO2. At the end of the incubation period, 30 μL supernatant was transferred to another 384-well plate and mixed on a plate shaker for 1 minutes. The supernatant was mixed with HTRF Antibody (Human IL1 beta kit, Cisbio, 62HIL1BPEH) in assay plates (Greiner Bio-One, Cat #784075) and the assay plates were incubated in shading box at room temperature for 16-24 hours. HTRF signal was measured by EnVision (Perkinelmer) in accordance with the manufacturer's instructions.
as §2, §3

[1] abbreviates: Homo sapiens, THP-1, THP-1 macrophages.

For `Cc1cc(C)c(-n2cc3sc(N[C@@H]4CCCN(C5CCOC5)C4)nc3n2)c(O)c1` (single isomer, unassigned) [Example 71, 3,5-dimethyl-2-[5-({(3R)-1-[(S)-oxolan-3-yl]piperidin-3-yl}amino)-2H-pyrazolo[3,4-d][1,3]thiazol-2-yl]phenol or 3,5-dimethyl-2-[5-({(3R)-1-[(R)-oxolan-3-yl]piperidin-3-yl}amino)-2H-pyrazolo[3,4-d][1,3]thiazol-2-yl]phenol (tR1)], the values for the IC50 with NF-κB pathway (setting [1]) and against NLRP3 inflammasome were over 30 µM and 0.043 µM, respectively.

`Cc1cc(C)c(-n2cc3sc(N[C@@H]4CCCN(C5CCOC5)C4)nc3n2)c(O)c1` (single isomer, unassigned) [Example 72, 3,5-dimethyl-2-[5-({(3R)-1-[(S)-oxolan-3-yl]piperidin-3-yl}amino)-2H-pyrazolo[3,4-d][1,3]thiazol-2-yl]phenol or 3,5-dimethyl-2-[5-({(3R)-1-[(R)-oxolan-3-yl]piperidin-3-yl}amino)-2H-pyrazolo[3,4-d][1,3]thiazol-2-yl]phenol (tR2)]: the values for the IC50 in the test on NF-κB pathway (THP-1 macrophages) and against NLRP3 inflammasome were over 30 µM and 0.029 µM, respectively.

In the case of `Cc1cc(C)c(-n2cc3sc(N[C@@H]4C[C@@H](F)CN(C5CCOC5)C4)nc3n2)c(O)c1` (single isomer, unassigned) [Example 73, 2-[5-({(3R,5R)-5-fluoro-1-[(S)-oxolan-3-yl]piperidin-3-yl}amino)-2H-pyrazolo[3,4-d][1,3]thiazol-2-yl]-3,5-dimethylphenol or 2-[5-({(3R,5R)-5-fluoro-1-[(R)-oxolan-3-yl]piperidin-3-yl}amino)-2H-pyrazolo[3,4-d][1,3]thiazol-2-yl]-3,5-dimethylphenol (tR1)], the IC50 in the test with NF-κB pathway (setting [1]) is over 30 µM; against NLRP3 inflammasome, 0.86 µM.

With `Cc1cc(C)c(-n2cc3sc(N[C@@H]4C[C@@H](F)CN(C5CCOC5)C4)nc3n2)c(O)c1` (single isomer, unassigned) [Example 74, 2-[5-({(3R,5R)-5-fluoro-1-[(S)-oxolan-3-yl]piperidin-3-yl}amino)-2H-pyrazolo[3,4-d][1,3]thiazol-2-yl]-3,5-dimethylphenol or 2-[5-({(3R,5R)-5-fluoro-1-[(R)-oxolan-3-yl]piperidin-3-yl}amino)-2H-pyrazolo[3,4-d][1,3]thiazol-2-yl]-3,5-dimethylphenol (tR2)], the IC50 in the test with NF-κB pathway (THP-1 macrophages) was over 30 µM; against NLRP3 inflammasome it was 0.56 µM.

As to `Cc1cc(O)c(-n2cc3sc(N[C@@H]4C[C@@H](F)CN(C)C4)nc3n2)c(C2CC2(F)F)c1` (single isomer, unassigned) [Example 126, 3-[(R)-2,2-difluorocyclopropyl]-2-(5-{[(3R,5R)-5-fluoro-1-methylpiperidin-3-yl]amino}-2H-pyrazolo[3,4-d][1,3]thiazol-2-yl)-5-methylphenol or 3-[(S)-2,2-difluorocyclopropyl]-2-(5-{[(3R,5R)-5-fluoro-1-methylpiperidin-3-yl]amino}-2H-pyrazolo[3,4-d][1,3]thiazol-2-yl)-5-methylphenol (tR2)], the concentration for half-maximal inhibition (IC50) in the test on NF-κB pathway (setting [1]) was over 30 µM; at NLRP3 inflammasome, 0.0038 µM.

`Cc1cc(O)c(-n2cc3sc(N[C@@H]4C[C@@H](F)CN(C)C4)nc3n2)c(C2CC2(F)F)c1` (single isomer, unassigned) [Example 127, 3-[(R)-2,2-difluorocyclopropyl]-2-(5-{[(3R,5R)-5-fluoro-1-methylpiperidin-3-yl]amino}-2H-pyrazolo[3,4-d][1,3]thiazol-2-yl)-5-methylphenol or 3-[(S)-2,2-difluorocyclopropyl]-2-(5-{[(3R,5R)-5-fluoro-1-methylpiperidin-3-yl]amino}-2H-pyrazolo[3,4-d][1,3]thiazol-2-yl)-5-methylphenol (tR1)]: the IC50 in the test on NF-κB pathway (THP-1 macrophages) is over 30 µM; on NLRP3 inflammasome, 0.015 µM.

Regarding `Cc1cc(C)c(-n2cc3sc(N[C@H]4COC[C@@H]4F)nc3n2)c(O)c1` (single isomer, unassigned) [Example 142, 2-(5-{[(3R,4S)-4-fluorooxolan-3-yl]amino}-2H-pyrazolo[3,4-d][1,3]thiazol-2-yl)-3,5-dimethylphenol or 2-(5-{[(3S,4R)-4-fluorooxolan-3-yl]amino}-2H-pyrazolo[3,4-d][1,3]thiazol-2-yl)-3,5-dimethylphenol (tR1)], the concentration for half-maximal inhibition (IC50) with NF-κB pathway (setting [1]) was over 30 µM; against NLRP3 inflammasome, 0.55 µM.

On to `Cc1cc(C)c(-n2cc3sc(N[C@H]4COC[C@@H]4F)nc3n2)c(O)c1` (single isomer, unassigned) [Example 143, 2-(5-{[(3R,4S)-4-fluorooxolan-3-yl]amino}-2H-pyrazolo[3,4-d][1,3]thiazol-2-yl)-3,5-dimethylphenol or 2-(5-{[(3S,4R)-4-fluorooxolan-3-yl]amino}-2H-pyrazolo[3,4-d][1,3]thiazol-2-yl)-3,5-dimethylphenol (tR2)], for which the IC50 is over 30 µM with NF-κB pathway (THP-1 macrophages) and 0.43 µM against NLRP3 inflammasome.

For the molecule `Cc1cc(C)c(-n2cc3sc(N[C@H]4COC[C@H]4F)nc3n2)c(O)c1` (single isomer, unassigned) [Example 145, 2-(5-{[(3R,4R)-4-fluorooxolan-3-yl]amino}-2H-pyrazolo[3,4-d][1,3]thiazol-2-yl)-3,5-dimethylphenol or 2-(5-{[(3S,4S)-4-fluorooxolan-3-yl]amino}-2H-pyrazolo[3,4-d][1,3]thiazol-2-yl)-3,5-dimethylphenol (tR2)], the concentration for half-maximal inhibition (IC50) in the test on NF-κB pathway (THP-1 macrophages) is over 30 µM; on NLRP3 inflammasome, 0.44 µM.

Consider `Cc1cc(C)c(-n2cc3sc(N[C@H]4CN(C)CCC4F)nc3n2)c(O)c1` (stereo in doubt) [Example 10, 2-(5-{[(3S,4S)-4-fluoro-1-methylpiperidin-3-yl]amino}-2H-pyrazolo[3,4-d][1,3]thiazol-2-yl)-3,5-dimethylphenol], for which the half-maximal inhibitory concentration (IC50) in the test on NF-κB pathway (THP-1 macrophages) is over 10 µM; at NLRP3 inflammasome, 0.046 µM.

For the molecule `CN1CCC[C@@H](Nc2nc3nn(-c4ccc(Br)cc4O)cc3s2)C1` [Example 1, 5-bromo-2-(5-{[(3R)-1-methylpiperidin-3-yl]amino}-2H-pyrazolo[3,4-d][1,3]thiazol-2-yl)phenol], the results for the half-inhibitory concentration (IC50) with NF-κB pathway (setting [1]) and against NLRP3 inflammasome were over 10 µM and 0.025 µM, respectively.

Regarding `Cc1cc(Cl)cc(O)c1-n1cc2sc(N[C@@H]3CCCN(C)C3)nc2n1` [Example 2, 5-chloro-3-methyl-2-(5-{[(3R)-1-methylpiperidin-3-yl]amino}-2H-pyrazolo[3,4-d][1,3]thiazol-2-yl)phenol], the IC50 in the test on NF-κB pathway (setting [1]) was over 30 µM; against NLRP3 inflammasome it was 0.0016 µM.

Consider `Cc1cc(C)c(-n2cc3sc(N[C@@H]4C[C@@H](F)CN(C)C4)nc3n2)c(O)c1` [Example 3, 2-(5-{[(3R,5R)-5-fluoro-1-methylpiperidin-3-yl]amino}-2H-pyrazolo[3,4-d][1,3]thiazol-2-yl)-3,5-dimethylphenol], for which the IC50 with NF-κB pathway (setting [1]) was over 30 µM; at NLRP3 inflammasome, 0.0082 µM.

`Cc1cc(C)c(-n2cc3sc(N[C@@H]4CCCN(C)C4)nc3n2)c(O)c1` [Example 4, 3,5-dimethyl-2-(5-{[(3R)-1-methylpiperidin-3-yl]amino}-2H-pyrazolo[3,4-d][1,3]thiazol-2-yl)phenol]: the IC50 was over 30 µM in the test on NF-κB pathway (setting [1]) and 0.0036 µM against NLRP3 inflammasome.

On to `Cc1cc(F)cc(O)c1-n1cc2sc(N[C@@H]3CCCN(C)C3)nc2n1` [Example 5, 5-fluoro-3-methyl-2-(5-{[(3R)-1-methylpiperidin-3-yl]amino}-2H-pyrazolo[3,4-d][1,3]thiazol-2-yl)phenol], for which the half-maximal inhibitory concentration (IC50) with NF-κB pathway (setting [1]) was over 30 µM; on NLRP3 inflammasome it was 0.015 µM.
